Measurements from ChEMBL document CHEMBL3994647, “Synthesis and in vitro cytotoxic evaluation of new 1H-benzo[d]imidazole derivatives of dehydroabietic acid” (Bioorg Med Chem Lett, 2017).

Columns and labels:
HepG2 = assay: Cytotoxicity against human HepG2 cells assessed as reduction in cell viability after 48 hrs by MTT assay; format: functional, cell-based; conditions: HepG2, 48 h
L02 = assay: Cytotoxicity against human LO2 cells assessed as reduction in cell viability after 48 hrs by MTT assay; format: cell-based; conditions: L02, 48 h
SMMC-7721 = assay: Cytotoxicity against human SMMC7721 cells assessed as reduction in cell viability after 48 hrs by MTT assay; format: functional, cell-based; conditions: SMMC-7721, 48 h

| Compound | IC50 (HepG2) | IC50 (L02) | IC50 (SMMC-7721) |
| --- | --- | --- | --- |
| COC(=O)[C@]1(C)CCC[C@]2(C)c3cc(Br)c4nc(/N=C/c5cc(Br)ccc5O)[nH]c4c3CC[C@@H]12 | 0.73 µM | 7.22 µM | 2.84 µM |
| CCN(CC)c1ccc(/C=N/c2nc3c(Br)cc4c(c3[nH]2)CC[C@H]2[C@](C)(C(=O)OC)CCC[C@]42C)c(O)c1 | 0.16 µM | 2.91 µM | 0.87 µM |
| COC(=O)[C@]1(C)CCC[C@]2(C)c3cc(Br)c4nc(N)[nH]c4c3CC[C@@H]12 | 15.3 µM | > 50 µM | 8.74 µM |
| COC(=O)[C@]1(C)CCC[C@]2(C)c3cc(Br)c([N+](=O)[O-])c([N+](=O)[O-])c3CC[C@@H]12 | 34.2 µM | > 50 µM | 29.8 µM |
| COC(=O)[C@]1(C)CCC[C@]2(C)c3cc(Br)c4nc(NCc5cc(Cl)cc(Cl)c5O)[nH]c4c3CC[C@@H]12 | 2.38 µM | 7.26 µM | 0.93 µM |
| COC(=O)[C@]1(C)CCC[C@]2(C)c3cc(Br)c4nc(/N=C/c5cc(Cl)ccc5O)[nH]c4c3CC[C@@H]12 | 1.81 µM | 6.56 µM | 2.2 µM |
| COC(=O)[C@]1(C)CCC[C@]2(C)c3cc(Br)c4nc(NCc5cc(C)ccc5O)[nH]c4c3CC[C@@H]12 | 6.22 µM | 17.3 µM | 0.83 µM |
| COC(=O)[C@]1(C)CCC[C@]2(C)c3cc(Br)c(N)c(N)c3CC[C@@H]12 | > 50 µM | > 50 µM | > 50 µM |
| COC(=O)[C@]1(C)CCC[C@]2(C)c3cc(Br)c4nc(NCc5cc([N+](=O)[O-])ccc5O)[nH]c4c3CC[C@@H]12 | 5.52 µM | 18.3 µM | 1.37 µM |
| COC(=O)[C@]1(C)CCC[C@]2(C)c3cc(Br)c4nc(NCc5cc(Br)ccc5O)[nH]c4c3CC[C@@H]12 | 4.21 µM | 21.6 µM | 4.02 µM |
| COC(=O)[C@]1(C)CCC[C@]2(C)c3cc(Br)c4nc(NCc5cccc(F)c5O)[nH]c4c3CC[C@@H]12 | 1.65 µM | 12.7 µM | 4.27 µM |
| COC(=O)[C@]1(C)CCC[C@]2(C)c3cc(Br)c4nc(/N=C/c5ccc6ccccc6c5O)[nH]c4c3CC[C@@H]12 | 1.08 µM | 10.8 µM | 2.08 µM |
| COc1cc([C@@H]2c3cc4c(cc3[C@@H](O[C@@H]3O[C@@H]5CO[C@@H](C)O[C@H]5[C@H](O)[C@H]3O)[C@H]3COC(=O)[C@H]23)OCO4)cc(OC)c1O [ETOPOSIDE] | 0.83 µM | 3.78 µM | 0.15 µM |
